ChEMBL document CHEMBL2169853, “Discovery and in vivo evaluation of dual PI3Kβ/δ inhibitors” (J Med Chem, 2012)
≈ marks a conversion by molar mass, not a printed value.

Assays:
physchem [1] = conditions: buffer, pH 7.4
Description: Lipophilicity, log D of the compound at pH 7.4

[2] = molecular target: T1, Phosphatidylinositol 4,5-bisphosphate 3-kinase catalytic subunit beta isoform (Homo sapiens, UniProt P42338)
Description: Inhibition of PI3Kbeta-mediated AKT Ser473 phosphorylation in human MDA-MB-468 cells after 120 mins by meso scale discover assay

in vitro [3] = conditions: rat, liver microsomes
Description: Drug metabolism in rat liver microsomes at 1 uM after 30 mins

in vitro [4] = conditions: human, liver microsomes
Description: Drug metabolism in human liver microsomes at 1 uM after 30 mins

[5] = molecular target: T1, Phosphatidylinositol 4,5-bisphosphate 3-kinase catalytic subunit beta isoform; remark: listed apart in the source
Description: Inhibition of PI3Kbeta using phosphatidylinositol-4,5-bisphosphate by ATP bioluminescence assay

[6] = molecular target: Phosphatidylinositol 4,5-bisphosphate 3-kinase catalytic subunit gamma isoform (Homo sapiens, UniProt P48736)
Sequence of Phosphatidylinositol 4,5-bisphosphate 3-kinase catalytic subunit gamma isoform (P48736 whole entry, canonical isoform): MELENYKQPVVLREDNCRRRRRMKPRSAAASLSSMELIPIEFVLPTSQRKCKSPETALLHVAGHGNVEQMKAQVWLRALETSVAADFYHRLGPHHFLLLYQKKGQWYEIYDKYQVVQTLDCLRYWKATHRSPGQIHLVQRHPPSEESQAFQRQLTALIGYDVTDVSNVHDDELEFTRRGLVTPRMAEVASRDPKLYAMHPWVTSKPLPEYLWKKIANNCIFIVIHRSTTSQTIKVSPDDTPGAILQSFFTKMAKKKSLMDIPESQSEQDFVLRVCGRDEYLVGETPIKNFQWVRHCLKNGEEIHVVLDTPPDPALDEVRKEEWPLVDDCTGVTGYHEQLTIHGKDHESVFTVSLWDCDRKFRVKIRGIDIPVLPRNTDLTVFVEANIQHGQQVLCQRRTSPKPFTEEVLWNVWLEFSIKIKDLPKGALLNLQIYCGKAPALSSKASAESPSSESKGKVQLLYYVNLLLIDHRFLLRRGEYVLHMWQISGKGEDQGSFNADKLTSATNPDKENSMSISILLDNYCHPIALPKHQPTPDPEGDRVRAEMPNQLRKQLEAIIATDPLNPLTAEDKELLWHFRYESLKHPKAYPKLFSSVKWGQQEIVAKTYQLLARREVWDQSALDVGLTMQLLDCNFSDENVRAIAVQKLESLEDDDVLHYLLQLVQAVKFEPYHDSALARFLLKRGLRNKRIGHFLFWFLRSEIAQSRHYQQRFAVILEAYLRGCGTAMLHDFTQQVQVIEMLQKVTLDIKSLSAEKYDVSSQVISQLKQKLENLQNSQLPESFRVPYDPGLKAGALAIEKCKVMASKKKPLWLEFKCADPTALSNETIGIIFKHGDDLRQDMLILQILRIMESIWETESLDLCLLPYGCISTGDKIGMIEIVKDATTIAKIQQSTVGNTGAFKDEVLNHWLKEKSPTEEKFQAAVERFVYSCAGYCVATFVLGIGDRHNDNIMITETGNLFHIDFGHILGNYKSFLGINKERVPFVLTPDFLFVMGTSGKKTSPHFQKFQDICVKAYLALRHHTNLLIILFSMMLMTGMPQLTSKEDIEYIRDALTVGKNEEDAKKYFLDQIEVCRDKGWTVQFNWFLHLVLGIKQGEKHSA
Description: Inhibition of PI3Kgamma by ATP bioluminescence assay

[7] = molecular target: T2, PXR (nuclear receptor subfamily 1 group I member 2) (Homo sapiens, UniProt O75469); experiment: in vitro
T2 sequence (O75469 whole entry): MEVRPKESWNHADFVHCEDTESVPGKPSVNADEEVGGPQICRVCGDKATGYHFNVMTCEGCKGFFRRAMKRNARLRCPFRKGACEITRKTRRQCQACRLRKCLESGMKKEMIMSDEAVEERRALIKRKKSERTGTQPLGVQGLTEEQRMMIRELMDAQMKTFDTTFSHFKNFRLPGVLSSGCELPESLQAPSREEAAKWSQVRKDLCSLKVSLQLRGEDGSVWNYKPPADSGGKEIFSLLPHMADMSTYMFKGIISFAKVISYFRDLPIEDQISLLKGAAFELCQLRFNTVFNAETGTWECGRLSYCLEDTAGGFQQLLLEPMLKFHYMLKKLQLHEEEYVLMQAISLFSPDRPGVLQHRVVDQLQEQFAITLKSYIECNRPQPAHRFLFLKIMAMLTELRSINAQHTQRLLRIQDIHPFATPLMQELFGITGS
Description: Inhibition of human PXR assessed as activity remaining at 2 uM relative to rifampicin

physchem [8] = conditions: phosphate buffered saline, pH 7.4
Description: Solubility of the compound in phosphate buffered saline at pH 7.4

[9] = molecular target: Phosphatidylinositol 4,5-bisphosphate 3-kinase catalytic subunit alpha isoform (Homo sapiens, UniProt P42336)
Sequence of Phosphatidylinositol 4,5-bisphosphate 3-kinase catalytic subunit alpha isoform (P42336 whole entry, canonical isoform): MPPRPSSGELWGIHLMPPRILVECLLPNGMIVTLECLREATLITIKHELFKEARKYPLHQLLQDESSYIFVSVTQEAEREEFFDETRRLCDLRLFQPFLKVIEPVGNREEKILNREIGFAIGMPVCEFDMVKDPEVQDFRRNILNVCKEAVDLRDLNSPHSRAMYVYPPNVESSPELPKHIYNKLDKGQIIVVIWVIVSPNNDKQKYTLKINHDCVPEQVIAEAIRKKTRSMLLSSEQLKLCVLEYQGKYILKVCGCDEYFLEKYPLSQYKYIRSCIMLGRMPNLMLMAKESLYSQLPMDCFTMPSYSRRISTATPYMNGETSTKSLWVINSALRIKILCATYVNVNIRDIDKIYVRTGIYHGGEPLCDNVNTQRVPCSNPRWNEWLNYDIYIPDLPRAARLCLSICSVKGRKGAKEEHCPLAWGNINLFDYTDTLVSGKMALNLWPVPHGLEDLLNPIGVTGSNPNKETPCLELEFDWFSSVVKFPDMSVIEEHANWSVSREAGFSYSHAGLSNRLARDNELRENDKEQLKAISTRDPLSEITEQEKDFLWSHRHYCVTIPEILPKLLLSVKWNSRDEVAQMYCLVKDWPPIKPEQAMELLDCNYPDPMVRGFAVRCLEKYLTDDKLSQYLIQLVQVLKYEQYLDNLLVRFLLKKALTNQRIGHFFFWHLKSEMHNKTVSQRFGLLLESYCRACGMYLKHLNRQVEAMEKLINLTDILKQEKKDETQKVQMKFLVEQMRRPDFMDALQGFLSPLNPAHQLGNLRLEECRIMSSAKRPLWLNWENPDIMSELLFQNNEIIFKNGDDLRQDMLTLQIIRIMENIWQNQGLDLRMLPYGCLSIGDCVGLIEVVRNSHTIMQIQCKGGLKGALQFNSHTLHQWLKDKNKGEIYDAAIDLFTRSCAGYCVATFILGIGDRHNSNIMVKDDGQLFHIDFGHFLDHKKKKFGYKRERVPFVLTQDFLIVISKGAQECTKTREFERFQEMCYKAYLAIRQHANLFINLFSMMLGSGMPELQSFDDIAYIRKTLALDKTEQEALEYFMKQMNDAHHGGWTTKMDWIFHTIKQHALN
Description: Inhibition of PI3Kalpha by ATP bioluminescence assay

[10] = molecular target: T3, Phosphatidylinositol 4,5-bisphosphate 3-kinase catalytic subunit delta isoform (Homo sapiens, UniProt O00329)
T3 sequence (O00329 whole entry): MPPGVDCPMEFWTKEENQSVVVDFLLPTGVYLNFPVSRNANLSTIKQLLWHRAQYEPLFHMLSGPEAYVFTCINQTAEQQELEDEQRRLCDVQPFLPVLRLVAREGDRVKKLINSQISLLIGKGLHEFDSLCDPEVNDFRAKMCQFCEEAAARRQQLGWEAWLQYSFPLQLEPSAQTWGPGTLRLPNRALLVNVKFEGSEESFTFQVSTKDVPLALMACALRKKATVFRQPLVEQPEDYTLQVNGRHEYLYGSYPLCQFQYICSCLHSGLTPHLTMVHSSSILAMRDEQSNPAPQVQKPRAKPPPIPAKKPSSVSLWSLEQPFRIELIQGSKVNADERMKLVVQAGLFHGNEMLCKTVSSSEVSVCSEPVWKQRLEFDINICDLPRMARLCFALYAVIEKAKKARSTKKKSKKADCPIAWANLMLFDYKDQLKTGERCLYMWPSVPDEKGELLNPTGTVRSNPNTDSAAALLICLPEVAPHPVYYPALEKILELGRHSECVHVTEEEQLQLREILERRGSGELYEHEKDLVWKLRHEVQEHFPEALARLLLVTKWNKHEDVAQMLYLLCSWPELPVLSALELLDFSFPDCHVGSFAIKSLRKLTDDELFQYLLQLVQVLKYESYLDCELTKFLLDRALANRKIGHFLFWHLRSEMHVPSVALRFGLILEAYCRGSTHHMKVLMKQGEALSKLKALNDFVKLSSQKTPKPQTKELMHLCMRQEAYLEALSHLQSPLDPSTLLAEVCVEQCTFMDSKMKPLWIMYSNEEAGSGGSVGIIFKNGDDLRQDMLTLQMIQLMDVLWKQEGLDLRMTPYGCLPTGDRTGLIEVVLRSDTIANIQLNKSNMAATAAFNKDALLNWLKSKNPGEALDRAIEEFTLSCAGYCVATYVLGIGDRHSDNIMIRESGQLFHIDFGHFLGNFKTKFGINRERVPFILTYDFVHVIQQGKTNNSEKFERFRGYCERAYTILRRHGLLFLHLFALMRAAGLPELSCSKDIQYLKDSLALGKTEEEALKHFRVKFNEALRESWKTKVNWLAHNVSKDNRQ
Description: Inhibition of PI3Kdelta using phosphatidylinositol-4,5-bisphosphate by ATP bioluminescence assay

in vivo [11] = conditions: Sprague-Dawley, rat, iv, 0.5 mg/kg
Description: Half life in Sprague-Dawley rat at 0.5 mg/kg, iv

in vivo [12] = conditions: Sprague-Dawley, rat, iv, 0.5 mg/kg; remark: listed apart in the source
Description: Volume of distribution at steady state in Sprague-Dawley rat at 0.5 mg/kg, iv

in vivo [13] = conditions: Sprague-Dawley, rat, iv, 0.5 mg/kg; remark: listed apart in the source
Description: Clearance in Sprague-Dawley rat at 0.5 mg/kg, iv

in vivo [14] = conditions: Sprague-Dawley, rat, plasma, po, 2 mg/kg
in vivo [15] = conditions: Sprague-Dawley, rat, po, 2 mg/kg

T1 sequence (P42338 whole entry, canonical isoform): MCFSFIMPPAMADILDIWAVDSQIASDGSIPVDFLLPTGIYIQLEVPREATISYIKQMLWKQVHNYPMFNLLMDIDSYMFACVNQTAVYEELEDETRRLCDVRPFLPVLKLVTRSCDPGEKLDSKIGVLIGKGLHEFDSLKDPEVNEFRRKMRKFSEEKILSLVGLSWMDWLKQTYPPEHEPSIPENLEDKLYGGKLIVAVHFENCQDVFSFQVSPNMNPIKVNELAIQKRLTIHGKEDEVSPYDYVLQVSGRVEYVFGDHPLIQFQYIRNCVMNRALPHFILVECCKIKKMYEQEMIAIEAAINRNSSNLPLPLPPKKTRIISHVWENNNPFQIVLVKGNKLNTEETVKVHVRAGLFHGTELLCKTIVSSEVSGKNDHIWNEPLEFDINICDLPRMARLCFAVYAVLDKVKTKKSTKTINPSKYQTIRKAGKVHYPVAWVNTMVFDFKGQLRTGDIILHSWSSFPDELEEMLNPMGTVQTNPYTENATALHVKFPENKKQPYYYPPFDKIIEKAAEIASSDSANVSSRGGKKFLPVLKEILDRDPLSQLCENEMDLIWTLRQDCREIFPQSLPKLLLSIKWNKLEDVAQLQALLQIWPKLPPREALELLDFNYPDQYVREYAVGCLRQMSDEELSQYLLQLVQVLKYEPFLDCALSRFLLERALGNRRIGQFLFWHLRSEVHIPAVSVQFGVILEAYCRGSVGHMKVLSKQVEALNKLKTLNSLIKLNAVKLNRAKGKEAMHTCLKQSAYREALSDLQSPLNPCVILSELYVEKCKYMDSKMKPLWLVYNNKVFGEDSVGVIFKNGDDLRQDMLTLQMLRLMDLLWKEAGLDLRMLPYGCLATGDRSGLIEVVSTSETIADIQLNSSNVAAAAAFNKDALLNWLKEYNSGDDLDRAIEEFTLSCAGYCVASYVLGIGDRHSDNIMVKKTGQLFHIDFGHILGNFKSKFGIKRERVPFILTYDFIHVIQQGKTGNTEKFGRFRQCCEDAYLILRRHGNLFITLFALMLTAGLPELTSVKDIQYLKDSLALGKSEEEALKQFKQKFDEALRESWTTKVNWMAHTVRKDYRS

Row | SMILES | metabolised at 0.5 h, 1 µM (in vitro [3]) | metabolised at 0.5 h, 1 µM (in vitro [4]) | IC50 [5] | activity at 2 µM [7] | solubility (physchem [8]) | Ki [5] | Ki [6] | IC50 [10] | further results
1 | Cc1c(-c2ccccn2)nc2cc(F)ccc2c1N1CC(CO)(CO)c2ccc(N3CCOCC3)cc21 | – | – | – | – | – | 269 nM | 16000 nM | – | Ki [9]: > 125 µM
2 | Cc1c(-c2ccccc2)nc2ccccc2c1N1CC(C)(C)c2ccc(N3CCOCC3)cc21 | 57% | 42% | 59 nM | 197% | 2.4 µg/mL (≈ 5.34 µM) | – | – | 85 nM | –
3 | Cc1c(-c2ccccc2F)nc2ccccc2c1N1CC(C)(C)c2ccc(N3CCOCC3)cc21 | 52% | 47% | 35 nM | 162% | 1 µg/mL (≈ 2.14 µM) | – | – | 47 nM | –
4 | Cc1nc2ccccc2c(N2CC(C)(C)c3ccc(N4CCOCC4)cc32)c1C | 94% | 65% | 60 nM | 14% | 1 µg/mL (≈ 2.58 µM) | – | – | 362 nM | IC50 [9]: 41 µM; IC50 [6]: 18000 nM
5 | Cc1c(-c2ccccc2)nc2ccccc2c1N1CC2(CCOCC2)c2ccc(N3CCOCC3)cc21 | 46% | 62% | 105 nM | 103% | 3.2 µg/mL (≈ 6.51 µM) | – | – | 91 nM | –
6 | Cc1c(-c2ccccn2)nc2cccc(F)c2c1N1CC(C)(C)c2ccc(N3CCOCC3)cc21 | 49% | 52% | 720 nM | 104% | 5.2 µg/mL (≈ 11.1 µM) | – | – | 72 nM | –
7 | Cc1c(-c2ccccn2)nc2cc(F)ccc2c1N1CC2(CS(=O)(=O)C2)c2ccc(N3CCOCC3)cc21 | – | – | – | – | – | 395 nM | 7340 nM | – | Ki [9]: > 12.5 µM
8 | Cc1c(-c2ccccn2)nc2cc(F)ccc2c1N1CC2(CCOCC2)c2ccc(N3CCOCC3)cc21 | 13% | 64% | 143 nM | 22% | – | – | – | 64 nM | –
9 | Cc1c(-c2ccccn2)nc2cc(F)ccc2c1N1CC(C)(C)c2ncc(N3CCOCC3)cc21 | 28% | 47% | – | 22% | 11 µg/mL (≈ 23.4 µM) | 30 nM | 92 nM | – | IC50 [2]: 51 nM; half-life (in vivo [11]): 372 min; Ki [9]: 1.72 µM; Vd (in vivo [12]): 5 L/kg; AUC (in vivo [14]): 2 µM·h; bioavailability (in vivo [15]): 47%; Ki [10]: 7 nM; clearance (in vivo [13]): 16.2 mL/min/kg
10 | Cc1nc2ccccc2c(N2CC3(CCOCC3)c3ccc(N4CCOCC4)cc32)c1C | 71% | 70% | 54 nM | 1% | – | – | – | 450 nM | –
11 | Cc1nc2ccc(Cl)cc2c(N2CC(C)(C)c3ccc(N4CCOCC4)cc32)c1C | 84% | 54% | 60 nM | 17% | 1 µg/mL (≈ 2.37 µM) | – | – | – | –

Continued, in another order:

Row | metabolised at 0.5 h, 1 µM (in vitro [3]) | metabolised at 0.5 h, 1 µM (in vitro [4]) | IC50 [5] | activity at 2 µM [7] | solubility (physchem [8]) | Ki [5] | Ki [6] | IC50 [10] | SMILES | further results
12 | 34% | 40% | 58 nM | 106% | 7.4 µg/mL (≈ 15.8 µM) | – | – | – | Cc1c(-c2ccccn2)nc2cc(F)ccc2c1N1CC(C)(C)c2ccc(N3CCOCC3)cc21 | logD (physchem [1]): 4.5; IC50 [2]: 53 nM; IC50 [6]: 2010 nM
13 | – | – | – | – | – | 54 nM | 90 nM | – | Cc1c(-c2ccccn2)nc2cc(F)ccc2c1N1CC(C)(C)c2ccc(-c3ccnc(N)n3)cc21 | half-life (in vivo [11]): 366 min; Vd (in vivo [12]): 7.5 L/kg; clearance (in vivo [13]): 26.8 mL/min/kg
14 | – | – | 81 nM | – | – | – | – | – | Cc1c(-c2ccccn2)nc2cc(F)ccc2c1N1CC(C)(C)c2ccc(-c3ccncc3)cc21 | IC50 [6]: 1400 nM
15 | 34% | 12% | – | 65% | 17 µg/mL (≈ 35.6 µM) | 18 nM | 28 nM | – | Cc1c(-c2ccccn2)nc2cc(F)ccc2c1N1CC(C)(C)c2ncc(-c3ccnc(N)n3)cc21 | IC50 [2]: 10 nM
16 | – | – | – | – | – | > 125000 nM | 364 nM | – | Cc1cc(-c2ccc3c(c2)N(c2c(C)c(-c4ccccn4)nc4cc(F)ccc24)CC3(C)C)nc(N)n1 | Ki [9]: > 125 µM
